Molecules are shown by their SMILES. “And” between values parts separate entries of the source, which are not always exact repeats. Equal entries are not always repeated.

In this assay the test system is P. falciparum 3D7 growth, pLDH absorbance. Kind of assay: blood-stage malaria parasite growth potency – strain 3D7, dose response (AID 2305).
Usually IC50 stands for the concentration that inhibits the measured activity by half. A high value points to weaker potency in that assay. In the case of `COc1cccc(/C=C/C(=O)NC2CCC(CN3CCC(c4c[nH]c5ccccc45)CC3)CC2)c1` (centres undefined), the IC50 is 830 nM and 770 nM.
The same measure for `CCn1c(-c2nonc2N)nc2c(-c3cccc(NC(=O)Nc4ccc(C#N)cc4)c3)ncc(OCCCN)c21`: 1510 nM.
The figure for `Nc1ccc2[nH]cc(C3CCN(CCC4CCN(C(=O)/C=C/c5ccc(Cl)c(Cl)c5)CC4)CC3)c2n1` is 740 nM; for `O=C(Nc1ccc(-c2nc3ccccc3[nH]2)cc1)c1cnc(Cl)c(Cl)c1` it is 730 nM.
The figure for `CC1CN(Cc2ccc(-c3ccc(-c4nc5ccc(F)cc5[nH]4)s3)cc2)CC(C)O1` (centres undefined) is 880 nM; for `CN(CCS(C)(=O)=O)Cc1ccc(-c2ccc3ncnc(Nc4ccc(OCc5cccc(F)c5)c(Cl)c4)c3c2)o1` it is 680 nM; for `CN1CCN(CCCN(Cc2cccc(-c3cccc(CNCc4ccc5c(c4)OCO5)c3)c2)C(=O)CCC2CCCC2)CC1` it is 950 nM.
`O=C(Nc1cccc(-c2cccc(-c3nc4ccc(C(F)(F)F)cc4[nH]3)c2)c1)c1cccnc1` yielded an IC50 of 400 nM.
The same measure for `O=C(c1ccc(O)c(-c2cc(Cl)cc(Cl)c2)c1)N(CCO)CCO`: 910 nM; for `O=C1C2C(C(=O)N1c1ccccc1)[C@H]1S[C@@H]2c2c1ccc1ccccc21` (some centres undefined): 770 nM.
`CCCCCNc1nc(Nc2ccccc2C)nc2ccccc12` registered an IC50 of 740 nM.
`Cc1cccc(CCCNC(=O)CN(c2cccc(C(F)(F)F)c2)S(=O)(=O)c2ccc(C(F)(F)F)cc2)c1` came in with an IC50 of 680 nM.
The figure for `CC(C)(C)c1ccc(NC(=O)c2cccc(CN3CCCN(CC4CCCCC4)CC3)c2)cc1` is 740 nM.
Compound `CN(c1ccc(NC(=O)c2cccc(F)c2)cc1)C1CCCN(Cc2cccc(O)c2)C1` (centres undefined) displayed a concentration for half-maximal inhibition (IC50) of 1300 nM.
The figure for `CC1=C(C(=O)NC2CCC(CN3CCC(c4c[nH]c5ccccc45)CC3)CC2)Cc2ccccc21` (centres undefined) is 830 nM and 1000 nM; for `O=C(Nc1ccccc1)Nc1cccc(-c2nn3c(OCC4CCCCN4)cccc3c2-c2ccncc2)c1` (centres undefined) it is 860 nM; for `O=C(Nc1ccc(-c2csc(-c3nc4ccccc4[nH]3)c2)cc1)Nc1ccsc1` it is 550 nM.
For `CC(Nc1ccc2c(c1)CCC2)C(=O)Nc1cc(C(F)(F)F)ccc1N1CCOCC1` (centres undefined), the 50% inhibitory concentration (IC50) was determined as 90 nM.
The same measure for `CCCCCCC(N)c1ccc(OCCCOc2ccc(C(N)CCCCCC)cc2)cc1` (centres undefined): 1140 nM; for `COc1ccc(Cc2c(N)nc3nc(N)nc(N)c3c2C)cc1`: 190 nM.
`CC(C)NCc1ccc(-c2cccc(NC(=O)c3cccc(Cl)c3)c2)cc1` registered a half-maximal inhibitory concentration (IC50) of 730 nM.
`CC(C)CNCc1cccc(-c2ccc(CNc3ccc4ncccc4c3)cc2)c1` had an IC50 of 1060 nM.
The same measure for `CN1CCN(CC(O)CNC(=O)Nc2ccc(Br)cc2)CC1` (centres undefined): 150 nM; for `O=C(NC1CCN(Cc2ccccc2)CC1)c1ccc(-c2nc3cc(Cl)c(Cl)cc3[nH]2)s1`: 310 nM; for `CN(C)CCCOc1cccc(NC(=O)Nc2ccc(Cl)c(Cl)c2)c1`: 960 nM.
The figure for `CN1CCCN(Cc2cccc(-c3ccc(CNC(=O)c4cccc(Cl)c4)c(F)c3)c2)CC1` is 190 nM.
The same measure for `CN1CCN(c2ccnc3ccc(NC(=O)Nc4cccc5c(C#N)cccc45)cc23)CC1`: 1050 nM; for `CC(=O)Nc1cccc(C(=O)Nc2cccc(-c3cccc(-c4nc5ccc(F)cc5[nH]4)c3)c2)c1`: 550 nM.
On to `O=C(Nc1ccc(Cl)cc1)c1cccc(S(=O)(=O)NC2CCN(CC3CCCCC3)CC2)c1`, for which the IC50 amounted to 720 nM.
`CO/C(=C\C=C/c1cc2cc(Cl)c(Cl)cc2[nH]1)C(=O)NC1CC(C)(C)N(C)C(C)(C)C1`: the half-inhibitory concentration (IC50) came out at 830 nM.
As for `CCCNc1nc(NCc2c(C)cccc2C)nc(NC(C)(C)C)n1`, the IC50 worked out at 860 nM.
Regarding `Cc1nc(N)nc(N)c1-c1ccc(Br)c(Br)c1`, the IC50 was 50 nM.
Take `CCNC(=O)N[C@@H]1CN[C@@H](C#Cc2cc3c(Nc4ccc(OCc5cccc(F)c5)c(Cl)c4)ncnc3s2)C1`: the IC50 amounted to 1010 nM.
The figure for `CC(Nc1cc(-c2ccccn2)nc(-c2ccccn2)n1)c1ccccc1` (centres undefined) is 450 nM; for `COc1ccc2c(NN=Cc3cccc(C)n3)ccnc2c1` it is 760 nM; for `Cc1nc(NCc2ccccc2)cc(Nc2cc(NCc3ccccc3)nc(C)n2)n1` it is 970 nM.
`COc1ccc2nccc([C@@H](O)CN3CCC(NC(=O)C(=Cc4ccc(Cl)cc4Cl)c4ccc(-c5ccccc5)cc4)CC3)c2c1` yielded a half-maximal inhibitory concentration (IC50) of 990 nM.
`FC(F)(F)c1ccc2nc(-c3ccc(-c4cccc(CN5CCN(CCN6CCOCC6)CC5)c4)cc3)[nH]c2c1` returned an IC50 of 160 nM.
In the case of `COc1cccc(-c2c(C#N)c(N)nc3c2c(C)nn3-c2ccccc2)c1O`, the IC50 was found to be 280 nM.
The same measure for `CS(=O)(=O)N1CC2(CCN(CCC(NC(=O)/C=C/c3ccccc3)c3ccc(Cl)c(Cl)c3)CC2)c2ccccc21` (centres undefined): 780 nM; for `COc1ccc2nccc([C@@H](O)CN3CCC(NCCOc4ccccc4C(F)(F)F)CC3)c2c1`: 750 nM.
The same measure for `CC(C)C(=O)ONC1=NC(C)(C)N(OCCCOc2cc(Cl)c(Cl)cc2Cl)C(NOC(=O)C(C)C)=N1`: 30 nM; for `Cc1cccc2[nH]c(-c3ccc(-c4ccc(CN5CCN(CCN6CCOCC6)CC5)cc4)cc3)nc12`: 230 nM.
In the case of `N#Cc1ccc(-c2ccc(C(=O)NCCCCN3CCC(c4cc(Br)c5c(c4OCC(N)=O)CCCC5)CC3)cc2)cc1`, the IC50 came to 800 nM.
The same measure for `Cc1[nH]c(C)c(-c2ccc(-c3ccc(F)cc3)cc2)c(=O)c1Cl`: 660 nM; for `CC[C@H]1CN2CC[C@@H]1C[C@H]2[C@H](O)c1cc(-c2c(C)noc2C)nc2ccc(OC)cc12`: 30 nM.
The same measure for `COC(=O)c1cccc(CNCc2ccc(-c3ccc(-c4nc5c(C)cccc5[nH]4)s3)cc2)c1`: 400 nM; for `Cc1ccc(OCCCCONC(=O)c2ccccc2)cc1`: 150 nM.
The figure for `O=c1ccc2ccc(F)c3c2n1CC3CN1CCC(NCc2ccc(-c3cccc(Cl)c3)nc2)CC1` (centres undefined) is 990 nM.
Regarding `CCOC(=O)c1cc(C(=O)NCCCCN2CCC(c3cn(C)c4ccccc34)CC2)ccc1-c1ccc(C(F)(F)F)cc1`, the 50% inhibitory concentration (IC50) was 1200 nM.
The figure for `O=C(Nc1ccc(OC2CCN(Cc3ccc(F)cc3)CC2)c(Cl)c1)c1ccccc1` is 790 nM; for `Cc1cccc2[nH]c(-c3ccc(-c4ccc(CN5CCOCC5)cc4)cc3)nc12` it is 820 nM; for `CS(=O)(=O)c1ccc(CCNCc2ccc(-c3ccc(CN(C(=O)c4ccc(Cl)nc4)C4CCN(Cc5ccccc5)CC4)cc3)nc2)cc1` it is 800 nM.
As to `CN(C)CCCOc1ccc(CCNCc2cccc(Oc3ccc(Cl)cc3)c2)cc1`, the IC50 was 890 nM.
In turn, `CN=C(NO)NCCN(C)C` returned an IC50 of 1180 nM.
`Nc1cnc(C#Cc2cc3ncnc(N(CCN4CCOCC4)c4ccc(OCc5cccc(F)c5)c(Cl)c4)c3s2)cn1` had an IC50 of 1050 nM.
The figure for `CCOC(=O)NC1=NC(C)(C)N(OCc2ccc(Cl)c(Cl)c2)C(N)=N1` is 40 nM; for `CCc1cc(Cc2cnc(N)nc2N)cc(CC)c1OC` it is 1130 nM.
`COc1ccc2nccc([C@@H](O)CN3CCC(NC(=O)C(c4cc5ccccc5o4)N4CCN(c5ccccc5)CC4)CC3)c2c1` (some centres undefined) had a concentration for half-maximal inhibition (IC50) of 240 nM.
On to `c1cc(CNCC2CCCO2)cc(-c2cccc(-c3nc4ccccc4[nH]3)c2)c1` (centres undefined), for which the IC50 amounted to 860 nM.
`NC(N)=Nc1nc(-c2ccc(NC(=O)Nc3cccc(-c4csc(N=C(N)N)n4)c3)cc2)cs1`: the IC50 turned out to be 1010 nM.
The same measure for `CCCn1c(Sc2ccc(C#N)c([N+](=O)[O-])c2)nnc1-c1ccc(N(C)C)cc1`: 130 nM.
The same measure for `N#Cc1ccc(N2CCN(Cc3ccc(-c4ccc(-c5nc6ccc(C(F)(F)F)cc6[nH]5)s4)cc3)CC2)nc1`: 810 nM.
Compound `O=C(Nc1ccc(Cl)cc1)Nc1ccc(-c2ccc(-c3nc4ccccc4[nH]3)cc2)cc1` had an IC50 of 50 nM.
Consider `CCCCCCN1CCC(NCc2cccc([N+](=O)[O-])c2)CC1`, for which the IC50 stood at 670 nM.
Take `COc1ccc(NC(=O)/C=C/c2ccccc2Cl)cc1OCCN1CCC(N2CCN(C)CC2)CC1`: the IC50 is 490 nM.
On to `NCCCNc1nc(Nc2cccc(C(N)=O)c2)c2c(=O)[nH]ccc2n1`, for which the IC50 worked out at 590 nM.
In the case of `COc1cccc(C(C)(C)NC[C@@H](O)[C@H](Cc2ccccc2)NC(=O)c2cc(C3CCCC3)cc(N3CCCCS3(=O)=O)c2F)c1`, the IC50 is 30 nM.
Take `COc1ccc(O)c(C(=O)c2cc(C#N)c(=O)n(-c3ccc(Oc4ccccc4)cc3)c2)c1`: the IC50 worked out at 740 nM.
The compound `O=C(Nc1ccc(S(=O)(=O)NCCCN2CCOCC2)cc1)c1cc(-c2ccccc2)n[nH]1` registered an IC50 of 770 nM.
On to `CCCCCCC(CC)c1cc(O)c2c(c1)OC(C)(C)c1ccncc1-2` (centres undefined), for which the IC50 was determined as 810 nM.
The figure for `CCc1cn(CC(=O)N(CCOc2ccc(-c3ccc(C(F)(F)F)cc3)cc2)CCN(CC)CC)c(SCc2ccc(F)cc2)nc1=O` is 780 nM; for `Cc1cccc2[nH]c(-c3ccc(-c4ccc(CN5CCN(c6cnccn6)CC5)cc4)s3)nc12` it is 750 nM.
`FC(F)(F)c1ccc2nc(-c3ccc(-c4cccc(CNCCN5CCNCC5)c4)cc3)[nH]c2c1` yielded an IC50 of 1030 nM.
The compound `CC(C)CC(NC(=O)c1cccc(OCCN2CCOCC2)c1)C(=O)NC(/C=N/NC(=O)c1ccccc1)CCc1ccccc1` (centres undefined) had an IC50 of 250 nM.
The same measure for `COc1cc(-n2cnc3cc(-c4ccc(Cl)cc4)sc3c2=O)ccc1OCCN1CCC(c2cccc(NC(C)=O)c2)CC1`: 550 nM; for `CC(Cc1ccc(NC(=O)CCCc2ccccc2)cc1)NCCc1cccc(Cl)c1` (centres undefined): 950 nM.
`Cc1cnc(-c2ccc(NC(=O)c3coc4ccc(N5C[C@@H](C)N(C)[C@@H](C)C5)cc34)cc2)o1` registered an IC50 of 650 nM.
The figure for `c1cncc(CN2CCN(Cc3ccc(-c4ccc(-c5nc6ccccc6[nH]5)s4)cc3)CC2)c1` is 940 nM; for `CCN(CCS(C)(=O)=O)Cc1ccc(-c2ccc3ncnc(Nc4ccc(OCc5cccc(F)c5)c(Cl)c4)c3c2)o1` it is 610 nM; for `NCc1ccc(-c2ccccc2CN(C(=O)Nc2ccccc2)C2CCN(Cc3ccccc3)CC2)cc1` it is 880 nM.
The compound `CN1CCN(CCCN(Cc2cccc(-c3ccc(CNC4CCCC4)cc3)c2)C(=O)/C=C/c2ccccc2)CC1` had an IC50 of 750 nM.
For the compound `CCCCCCN1CCCN(Cc2cccc(C(=O)Nc3ccc(C(C)(C)C)cc3)c2)CC1`, the IC50 came to 940 nM.
Consider `Cc1ccc(C)c(Cn2ccc3nc(N)nc(N)c32)c1`, for which the IC50 came out at 300 nM.

The record behind these values is PubChem BioAssay AID2305 (GlaxoSmithKline (GSK), 2010).
